Measurements from PubChem BioAssay (NCI).
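Interpolation was linear, between the two tested concentrations surrounding the appropriate level; five concentrations were tested over 48 hours in 96-well plates. GI50: concentration for 50% inhibition of growth. TGI marks complete inhibition of growth.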

Tests used:
Experiment in all cases: inhibition of tumour cell growth, NCI panel, 48 h
SNB-19 CNS = tested on: SNB-19 CNS
LOX IMVI melanoma = tested on: LOX IMVI melanoma
MOLT-4 leukemia = tested on: MOLT-4 leukemia
OVCAR-8 ovarian = tested on: OVCAR-8 ovarian
HCT-116 colon = tested on: HCT-116 colon
NCI-H226 lung = tested on: NCI-H226 lung
PC-3 prostate = tested on: PC-3 prostate
OVCAR-5 ovarian = tested on: OVCAR-5 ovarian
EKVX NSCLC = tested on: EKVX NSCLC

| Compound | TGI (SNB-19 CNS) [µM] | TGI (LOX IMVI melanoma) [µM] | TGI (MOLT-4 leukemia) [µM] | TGI (OVCAR-8 ovarian) [µM] | TGI (HCT-116 colon) [µM] | TGI (NCI-H226 lung) [µM] | TGI (PC-3 prostate) [µM] | TGI (OVCAR-5 ovarian) [µM] | TGI (EKVX NSCLC) [µM] | GI50 (SNB-19 CNS) [µM] | GI50 (LOX IMVI melanoma) [µM] | GI50 (MOLT-4 leukemia) [µM] | GI50 (OVCAR-8 ovarian) [µM] | GI50 (HCT-116 colon) [µM] | GI50 (NCI-H226 lung) [µM] | GI50 (PC-3 prostate) [µM] | GI50 (OVCAR-5 ovarian) [µM] | GI50 (EKVX NSCLC) [µM] |
| --- | --- | --- | --- | --- | --- | --- | --- | --- | --- | --- | --- | --- | --- | --- | --- | --- | --- | --- |
| Cc1ccc(NCCCN2CCN(CCCNc3ccc(C)c4sc5ccccc5c(=O)c34)CC2)c2c(=O)c3ccccc3sc12 | > 100 | > 100 | > 100 | > 100 | > 100 | > 100 | > 100 | > 100 | > 100 | – | – | – | – | – | – | – | – | – |
| CC1=CC2CC(C)=C(CC[C@]3(C)CC[C@H]([C@@H](C)C(=O)O)OO3)C(C)(C)C2CC1 (some centres undefined) | 3.08 | 0.207 | – | 1.31 | 0.943 | 3.45 | – | 3.8 | 3.64 | – | – | – | – | – | – | – | – | – |
| COc1ccc(S(=O)(=O)NC(C)C(=O)O)cc1 (centres undefined) | > 100 | > 100 | > 100 | > 100 | – | – | – | > 100 | > 100 | – | – | – | – | – | – | – | – | – |
| CN(C)c1ccc2c(c1)C(=O)N(OS(=O)(=O)c1ccc([N+](=O)[O-])cc1)C2=O | > 100 | – | – | 61.2 | > 10 | > 100 | – | 57.6 | > 100 | – | – | – | – | – | – | – | – | – |
| CC1=CCC[C@@]2(C)C(CC[C@@H]2C(C)/C=C/C(C)C)c2ccc(cc2C(=O)O)C[C@@H](O)CC1 (some centres undefined) | 17.5 | 19 | 28 | 33.3 | 20.7 | 32.7 | – | 30 | – | – | – | – | – | – | – | – | – | – |
| Cc1ccc(C)c(NC(=O)C(=O)CC(=O)C2CCOC2=O)c1 (centres undefined) | > 100 | > 100 | – | > 100 | > 100 | > 100 | – | > 100 | > 100 | – | – | – | – | – | – | – | – | – |
| CCC1(C)NN=c2s/c(=C/c3ccc(OC)cc3)c(=O)n2N1 (centres undefined) | > 100 | > 100 | > 100 | > 100 | > 100 | > 100 | – | > 100 | > 100 | – | – | – | – | – | – | – | – | – |
| N#C/C(=C\c1ccccc1O)C(N)=O | > 100 | > 100 | > 100 | > 100 | > 100 | > 100 | – | > 100 | > 100 | – | – | – | – | – | – | – | – | – |
| COC(=O)Cc1cc(OC)c(OC)cc1Br | > 100 | – | > 100 | > 100 | > 100 | > 100 | – | > 100 | > 100 | – | – | – | – | – | – | – | – | – |
| CCOc1ccccc1NC(=O)CCC(=O)OC | > 100 | > 31.6 | > 100 | > 100 | > 100 | > 100 | – | > 100 | > 100 | – | – | – | – | – | – | – | – | – |
| C=C(CNC(=O)Nc1ccc(-c2ccccc2)cc1)c1ccc(C(=O)Nc2ccccc2N)cc1 | > 100 | > 100 | > 100 | > 100 | > 100 | > 100 | > 100 | > 100 | > 100 | 98.7 | > 100 | 30.5 | 58.9 | > 100 | > 100 | 51.5 | > 100 | > 100 |
| O=C(CC1=Nc2nnc(-c3nnc4n3C(=O)C(CC(=O)c3cccnc3)=N4)n2C1=O)c1cccnc1 | > 100 | > 100 | > 100 | – | > 100 | > 100 | – | > 100 | – | – | – | – | – | – | – | – | – | – |
| COc1ccc(/C(=N/NC(N)=O)C2(O)C(=O)Nc3ccc([N+](=O)[O-])cc32)cc1 (centres undefined) | > 10 | – | 50 | 47.7 | 36.1 | > 100 | – | 81.2 | > 100 | – | – | – | – | – | – | – | – | – |
| N#Cc1cccc(N2C(=O)c3c(c(-c4ccccc4)c(-c4ccc(Sc5ccc(-c6c(-c7ccccc7)c7c(c(-c8ccccc8)c6-c6ccccc6)C(=O)N(c6cccc(C#N)c6)C7=O)cc5)cc4)c(-c4ccccc4)c3-c3ccccc3)C2=O)c1 | > 100 | > 100 | > 100 | > 100 | > 100 | – | – | > 100 | > 100 | – | – | – | – | – | – | – | – | – |
| Cc1cccc(C(=O)c2cccc3ccccc23)c1C(=O)O | > 100 | > 100 | > 100 | > 100 | > 100 | > 100 | – | > 100 | > 100 | – | – | – | – | – | – | – | – | – |
| N#Cc1cc(C#N)c(Cl)nc1N | > 10 | > 10 | > 10 | > 10 | > 10 | > 10 | > 10 | – | > 10 | – | – | – | – | – | – | – | – | – |
| COc1cccc([C@H]2CC(=O)c3cc4c(cc3N2)OCO4)c1 | 1.81 | > 100 | 0.0821 | – | > 100 | > 100 | > 100 | – | – | – | 0.273 | 0.0316 | – | 0.0604 | 0.226 | 0.0927 | 13.7 | – |
